The values below come from patent publication US6515103B1 (priority 1996, dated 2003).

Where a SMILES comes first, the peptide text is derived from it. [ ]: non-standard residue; d: D form. Gla = N[C@@H](CC(C(=O)O)C(=O)O)C(=O)O

The target in one data set is NMDA receptor. It is filed as binding.
A short description of another data set: in vitro. Particulars: Frings audiogenic, mouse.

As usually defined, the IC50 is the concentration that inhibits the measured activity by half. `CC[C@H](C)[C@H](NC(=O)[C@H](CC(C)C)NC(=O)[C@H](CC(C(=O)O)C(=O)O)NC(=O)[C@H](CCC(N)=O)NC(=O)[C@H](CC(N)=O)NC(=O)[C@H](CC(C(=O)O)C(=O)O)NC(=O)[C@H](CCC(N)=O)NC(=O)[C@H](CC(C)C)NC(=O)[C@H](CCC(=O)O)NC(=O)[C@H](CC(C(=O)O)C(=O)O)NC(=O)[C@H](CCC(=O)O)NC(=O)CN)C(=O)N[C@@H](CCCNC(=N)N)C(=O)N[C@@H](CC(C(=O)O)C(=O)O)C(=O)N[C@@H](CCCCN)C(=O)N[C@@H](CO)C(=O)N[C@@H](CC(N)=O)C(N)=O` [E^4] yielded an IC50 at NMDA receptor of at least 20000 nM. As to `CC[C@H](C)[C@H](NC(=O)[C@H](CC(C)C)NC(=O)[C@H](C)NC(=O)[C@H](CCC(N)=O)NC(=O)[C@H](CC(N)=O)NC(=O)[C@H](C)NC(=O)[C@H](CCC(N)=O)NC(=O)[C@H](CC(C)C)NC(=O)[C@H](CC(C(=O)O)C(=O)O)NC(=O)[C@H](CC(C(=O)O)C(=O)O)NC(=O)[C@H](CCC(=O)O)NC(=O)CN)C(=O)N[C@@H](CCCNC(=N)N)C(N)=O` [(A^7,10)1-13] (H-GE[Gla][Gla]LQANQALIR-NH2; N-terminus assumed), the midpoint of inhibition against NMDA receptor, the IC50, lay at 253 nM. In turn, `CC[C@H](C)[C@H](NC(=O)[C@H](CC(C)C)NC(=O)[C@H](Cc1ccc(O)cc1)NC(=O)[C@H](CCC(N)=O)NC(=O)[C@H](CC(N)=O)NC(=O)[C@H](C)NC(=O)[C@H](CCC(N)=O)NC(=O)[C@H](CC(C)C)NC(=O)[C@H](CC(C(=O)O)C(=O)O)NC(=O)[C@H](CC(C(=O)O)C(=O)O)NC(=O)[C@H](CCC(=O)O)NC(=O)CN)C(=O)N[C@@H](CCCNC(=N)N)C(=O)N[C@@H](CC(C(=O)O)C(=O)O)C(=O)N[C@@H](CCCCN)C(=O)N[C@@H](CO)C(=O)N[C@@H](CC(N)=O)C(N)=O` [A^7,Y^10] (H-GE[Gla][Gla]LQANQYLIR[Gla]KSN-NH2; N-terminus assumed) showed an IC50 against NMDA receptor of 79 nM. On to `CC[C@H](C)[C@H](NC(=O)[C@H](CC(C)C)NC(=O)[C@H](C)NC(=O)[C@H](CCC(N)=O)NC(=O)[C@H](CC(N)=O)NC(=O)[C@H](C)NC(=O)[C@H](CCC(N)=O)NC(=O)[C@H](CC(C)C)NC(=O)[C@H](CC(C(=O)O)C(=O)O)NC(=O)[C@H](CC(C(=O)O)C(=O)O)NC(=O)[C@H](CCC(=O)O)NC(=O)CN)C(N)=O` [(A^7,10)1-12] (H-GE[Gla][Gla]LQANQALI-NH2; N-terminus assumed), for which the midpoint of inhibition against NMDA receptor, the IC50, lay at 300 nM. The half-life is how long it takes for the measured level to halve. Low values mean fast loss, high ones slow loss. `CC[C@H](C)[C@H](NC(=O)[C@H](CC(C)C)NC(=O)[C@H](CCC(=O)O)NC(=O)[C@H](CCC(N)=O)NC(=O)[C@H](CC(N)=O)NC(=O)[C@H](CCC(=O)O)NC(=O)[C@H](CCC(N)=O)NC(=O)[C@H](CC(C)C)NC(=O)[C@H](CCC(=O)O)NC(=O)[C@H](CCC(=O)O)NC(=O)[C@H](CCC(=O)O)NC(=O)CN)C(=O)N[C@@H](CCCNC(=N)N)C(=O)N[C@@H](CCC(=O)O)C(=O)N[C@@H](CCCCN)C(=O)N[C@@H](CO)C(=O)N[C@@H](CC(N)=O)C(N)=O` [ECon G]: the half-life in the data set “in vitro” (brain homogenate) was 1.6 min; in “in vitro” (tissue homogenate) it was 0.425 min.
